Values joined by “and” are separate entries in the source; they are usually repeats but may differ in a detail not shown here. Equal entries are not always repeated.
Legend:
[1] = test system: blood brain barrier (BBB); test: BBB permeabilization in rats, Evans blue extravasation into brain; format: in vivo, Sprague-Dawley rats; conditions: Table 6; for μg EB/g brain (at EC50): at EC50 (Mannitol at 25%)
Source text: Permeabilization of the BBB by DP-BFA was investigated in rat model system by monitoring accumulation in the brain of two markers: a) Evans blue dye (EB), which rapidly binds in vivo with albumin (NW 70 kD) and is an indicator for paracellular transport; and b) Fluorescein sodium salt (F—Na), MW 376 D, which is transported via the cellular space, and enables monitoring transcellular transport. Upon BBB disruption the Evans blue-albumin complex irreversibly accumulates in the intercellular space of the brain. The much smaller tracer fluorescein may be transported intracellularly to occupy both inter and intracellular space in the brain.
Blood brain barrier permeabilization in Sprague-Dawley rats was induced by brief exposure to DP-BFA. The animals were anesthetized with Rampun-Imalgen and DP-BFA test compounds were administered via the external carotid artery retrograde to the brain (Smith, Q. R. Methods of study. In: Physiology and Pharmacology of the Blood-Brain Barrier. Ed. Bradbury M. W. B. Spinger-Verlag. Berlin-Heidelberg-NY; 1992: 24–52). The pterygo-palathina artery was ligated to avoid escape of infused solutions towards the external head vasculature. DP-BFA solutions were infused over a period of 30 seconds or half an hour, using a Harvard Apparatus Syringe Pump. Blood flow through carotid communis artery was interrupted only at the time of infusion.
All tested DP-BFA molecules were prepared from stock solutions in either water or ethanol by diluting 200–1000 fold into solution of isosmotic mannitol (5%) in Tromethamine buffer (Sigma) or PBS (pH 7.4)
The markers, Evans blue (EB, 25 mg/ml) and fluorescein (F—Na, 12.5 mg/ml), in 1 ml solution, were injected intravenously immediately following administration of the tested DP-BFA, or after a specific time interval if reversibility of action was investigated. Supportive i.v. infusion of F—Na (12.5 mg/ml–100 μl/min) was performed for 8 minutes. Brains were washed with saline solution (60 ml) 10 min after the intracarotid “flash”. Brain ipsilateral and contralateral hemispheres and tumors, where applicable, were homogenized separately with 50% trichloroacetic acid (TCA). The markers concentrations in the cortex and in tumors, where, applicable, were determined spectrofluorometrically (Uyama, O. et al., (1988) J. Cereb. Blood Flow Metab. 8, 282–284: Abraham et al., (1996) Neurosci. Lett. 208, 85–88). The markers content was calculated as μg marker per one-gram brain tissue. Standard error and Student's test for statistical significance were used.
The experiment was carried out on male Sprague-Dawley rats weighing 250–320 g. The procedure described above in Example 17 was followed.
The effect of the tested compounds on the BBB opening was evaluated by two parameters:
a) efficacy—The degree of BBB opening estimated in terms of accumulation of Evans Blue albumin (μg EB/g brain tissue); and
b) potency—measured in terms of EC50 and minimal effective concentration (MEC) values. EC50 is the concentration of a tested compound producing 50% of the maximal effect of Evans Blue extravasation.
The effect of various DP-BFAs on BBB permeability was tested in the model system of rat brains, as described above in Example 17. Efficacy, namely the level of the BBB opening was expressed as the amount of Evans blue accumulated in the brain (μg EB/g brain). Potency of the tested molecules was estimated by their calculated EC50 and minimal effective concentration (MEC) values.

[2] = test system: blood brain barrier (BBB); test: BBB permeability to EB-albumin and Fluorescein in normal rat brains; format: in vivo; conditions: compounds at EC50 (Mannitol 25%); for % EB/g brain: control 0.04 ± 0.01; for Brain fluorescein uptake (% of serum F-Na level): control 0.3 ± 0.08; for Ratio F-Na/EB (mean of individual ratios): control 9.5 ± 1.6
Source text: The effect of various DP-BFAs on BBB permeabilization to molecules of different sizes was examined in vivo in the model system of normal rat brains.
The transport of two markers was followed: a) Evans blue bound to albumin (MW 70 kD) as an indicator for paracellular transport; and b) Fluorescein sodium salt (MW 376 D) that represents small size molecules.
The Evans blue dye (EB) and Fluorescein sodium salt (F—Na) were infused into the artery carotis externa over 30 seconds according to the protocol described above in Example 17. The test compounds were used at their EC50 concentrations. Control animals were treated with vehicle solution.
Evans blue extravasation is expressed as the percentage of the total amount of EB accumulated per one gram of brain tissue. The transport of fluorescein into the brain, which is dependent on the serum concentration of this molecule, is presented as percentage of the F—Na level in the serum.

[3] = test system: blood tumor barrier (BTB) of C6 glioma; test: BTB opening in C6 glioma-bearing rats, Evans blue accumulation in tumor; format: in vivo, Sprague Dawley rats; conditions: for Specificity Tumor/Non-tumor (T/NT): ratio of EB accumulated in tumor and non-tumor brain
Experimental: (§1) In order to study the ability of DP-BFA compounds to modulate blood tumor barrier (BTB), a model system of C6 glioma-bearing rats, was employed.
(§2) Sprague Dawley (SD) rats were inoculated with C6 gliosarcoma cells following the procedure described by Bartus et al. (Exp Neurol (1996); 142:14–28). A small burr-hole was made in the frontal scalp bone of the rat fixed in a stereotaxis apparatus. Using a Hamilton syringe, 10 μl or 5 μl of media, containing 2.5×10^5 C6 gliosarcoma cells were inoculated into the frontal cortex. Coordinates were 1 mm posterior of bregma, 2.5 mm—lateral, and 3 mm—depth. The needle remained in the place for 5 min. After removal of the needle, fascia and scalp were sutured. The rats were checked 6–8 days after inoculation, when tumors of sufficient size (20–60 mg) had developed. The tumor was weighed after F—Na visualization and dissection. Parts of the rats' brains were subject to histological examinations and monitored for Evans Blue and Fluorescein uptake into ipsilateral tumour tissue, peritumoural tissue and contralateral tissue.
(§3) The bilateral tumor model system of C6 glioma-bearing rats described in Example 23 above was employed for screening of various derivatives of DP-BFA for their ability to permeabilize the blood brain barrier (BBB) in comparison to their effect on the blood tumor barrier (BTB). The experimental procedure described in Example 23 was followed except that the tumor-bearing rats were further treated with DP-BFA. The tested compounds, at concentrations around their EC50 values, were unilaterally infused into the external carotis artery over 30 seconds as described in Example 17. Animals treated with vehicle only serve as a control group. Permeabilization effect was quantitated by measuring accumulation of albumin bound Evans blue dye in tumor (T) versus non-tumor (NT) tissues.
(§4) Specificity index is defined as the ratio between the levels of EB accumulated in tumor and those accumulated in non-tumor brain tissues (T/NT).

[4] = test system: blood brain barrier (BBB); test: BBB opening in C6 glioma-bearing rats, Evans blue accumulation in non-tumor brain; format: in vivo, Sprague Dawley rats; conditions: concentrations around EC50 (Mannitol 25%), unilateral 30 s infusion
Experimental: as §1, §2, §3, §4

[5] = test system: blood tumor barrier / blood brain barrier; test: Unilateral administration in rats with bilateral C6 gliomas, Evans blue staining of brain sections; format: in vivo, SD rats; conditions: 10 μM 3,12-DEG-HPO4Na; 40 μM 3,12-Na; 25% mannitol; unilateral infusion
Experimental: FIGS. 2A–C depict Evans blue accumulation in brain sections of rats bearing bilateral gliomas following unilateral administration of a compound as follows: 10 μM 3,12-DEG-HPO4Na (FIG. 2A), 40 μM 3,12-Na (FIG. 2B) or mannitol 25% (FIG. 2C).
Evans Blue and Fluoroscein penetration into gliomas tumors was examined following unilateral infusion into the external carotis artery of either 10 μM 3,12-DEG-HPO4Na (FIG. 2A), 40 μM 3,12-Na BFA (FIG. 2B) or 25% mannitol (FIG. 2C). The relevant compound was infused into rat brains at 9 to 12 days following inoculation of C6 glioma cells as described in Example 23.

[6] = test system: Caco-2 colon cancer cell line; test: MTT cytotoxicity, Caco-2; format: cell-based, human; conditions: Caco-2, three days, read-out: EC50 (50% reduction in cell viability)
Experimental: (§5) The cytotoxic activity of various phospho-derivatives of branched-chain fatty acids (DP-BFAs) was assayed in vitro in cell cultures that include normal and malignant cell types. The following cell systems were used: • Primary fibroblasts (human) • Normal bone marrow (BM) cells (mouse) • Primary bronchial epithelial cells (human, from Clonetics, cat. no. CC-2541) • Caco-2—colon cancer cell line (human, ATTC, HTB-37) • C6 glioma cell line (rat, ATCC, CRL-2199) • Neuro2a—neuroblastoma cell line (mouse, ATCC, CCL-131) • SKBR-3—breast cancer cell line (human, ATTC, HTB-30) • HL60—myeloid leukemia cell line (human, ATCC, CCL-240) • U937—myeloid leukemia cell line (human)
(§6) Cells were seeded in a microtiter plate in MEM containing 2 mM L-glutamine, 100 units/ml penicillin, 100 ug/ml streptomycin and 10% FCS at 37° C. The cultured cells were incubated, during their linear growth phase in the absence (control group) or presence of various DP-BFAs as indicated. The final concentrations of the tested DP-BFAs ranged from 1.5 to 200 microMolars. At the end of the incubation period, which was five days for the bone marrow cells and three days for all the other cell lines, the cytotoxic effect of the added P-BFA on the cells was estimated by using the colorimetric MTT assay. The MTT assay (Mosmann (1983) J. Immunol Methods 65: 55–63) measures mitochondrial reductase activity and serves for quantitative assessment of cellular viability. Drug concentration that causes 50% reduction in cell viability in comparison to the control group, is defined as EC50. The EC50 values of the tested DP-BFA compounds were calculated from dose response curves established for each of the different assayed cell lines.
(§7) Each EC50 value is an average of EC50 values derived from 1–5 independent experiments.

C6 glioma cell line = test: MTT cytotoxicity, C6 glioma; format: cell-based, rat; conditions: three days, read-out: EC50 (50% reduction in cell viability)
Experimental: as §5, §6, §7

[7] = test system: Neuro2a neuroblastoma cell line; test: MTT cytotoxicity, Neuro2a; format: cell-based, mouse; conditions: three days, read-out: EC50 (50% reduction in cell viability)
Experimental: as §5, §6, §7

[8] = test system: SKBR-3 breast cancer cell line; test: MTT cytotoxicity, SKBR-3; format: cell-based, human; conditions: three days, read-out: EC50 (50% reduction in cell viability)
Experimental: as §5, §6, §7

[9] = test system: U937 myeloid leukemia cell line; test: MTT cytotoxicity, U937; format: cell-based, human; conditions: U937, three days, read-out: EC50 (50% reduction in cell viability)
Experimental: as §5, §6, §7

Primary fibroblasts = test: MTT cytotoxicity, normal primary fibroblasts; format: cell-based, human; conditions: three days, read-out: EC50 (50% reduction in cell viability)
Experimental: as §5, §6, §7

[10] = test system: Normal bone marrow (BM) cells; test: MTT cytotoxicity, normal bone marrow cells; format: cell-based, mouse; conditions: five days, read-out: EC50 (50% reduction in cell viability)
Experimental: as §5, §6, §7

[11] = test system: Primary bronchial epithelial cells; test: MTT cytotoxicity, normal primary epithelial cells; format: cell-based, human; conditions: Normal primary epithel, three days, read-out: EC50 (50% reduction in cell viability)
Experimental: as §5, §6, §7

For `OC[C@@H](O)[C@@H](O)[C@H](O)[C@H](O)CO` [Mannitol, mannitol, reference compound], the “μg EB/g brain (at EC50)” value [1] was 10 ± 2 μg EB/g brain, the “% EB/g brain” value [2] was 0.6 ± 0.21% and the “Brain fluorescein uptake (% of serum F-Na level)” value [2] was 2.4 ± 0.4 % of the F—Na level in the ser. The “Ratio F-Na/EB (mean of individual ratios)” value (“Ratio F-Na/EB” below) [2] was 4.0 ± 0.5, the “Ratio F-Na/EB” value ([2]; listed as mannitol) was 4 and the “BTB EB μg/g Tumor” value ([3]; concentrations around EC50 (Mannitol 25%), unilateral 30 s infusion) was 12 ± 2 µg/g. For the same compound, the “Specificity Tumor/Non-tumor (T/NT)” value [3] was 2.1 ± 0.5, the “Specificity Tumor/Non-tumor (T/NT)” value ([3]; listed as mannitol) was “about twice” and the “BBB EB μg/g Non-tumor brain” value [4] was 7 ± 2 µg/g. The “Evans Blue staining of tumor and non-tumor brain (FIG. 2, in words)” value [5] was “equally permeabilized tumor and non-tumor brain tissues”.
For `CCCCCCCCCCCCC(CCC)OCCOCCOP(=O)([O-])[O-].[Na+].[Na+]` (stereo not drawn) [3,12-(ether)-DEG-PO4Na2, 2(4-Hexadecanoxy)ethoxyethyl Disodium Phosphate], the EC50 [6] was 47 µM, the EC50 (C6 glioma cell line) was 40 µM and the EC50 [7] was 37 µM. It also gave an EC50 [8] of 58 µM, an EC50 [9] of 10 µM and an EC50 (Primary fibroblasts) of 65 µM. The EC50 [10] was 68 µM, the EC50 [11] was over 200 µM and the “μg EB/g brain (at EC50)” value [1] was 26 μg EB/g brain and 26 ± 5.2 μg EB/g brain. The “MEC (minimal effective concentration)” value ([1]; concentration giving 3 μg EB/g brain) was 7.3 ± 1.4 µM, the EC50 ([1]; rat brains, Evans blue extravasation, read-out: EQ50 (the source's name)) was 54 ± 5 µM and the “% EB/g brain” value [2] was 4 ± 0.8%. For the same compound, the “Brain fluorescein uptake (% of serum F-Na level)” value [2] was 4.4 ± 0.9 % of the F—Na level in the ser and the “Ratio F-Na/EB” value [2] was 1.1 and 1.1 ± 0.2.

From patent US7186703B2, “Derivatives of branched-chain lipophilic molecules and uses thereof” (D-Pharm Ltd., priority 2000, dated 2007)
